Experimental data reported in ChEMBL document CHEMBL2417377, “Hit-to-lead optimization and kinase selectivity of imidazo[1,2-a]quinoxalin-4-amine derived JNK1 inhibitors” (Bioorg Med Chem Lett, 2013).

Columns and labels:
[1] = molecular target: Phosphatidylinositol 4-kinase beta (Homo sapiens) (UniProt Q9UBF8); test: Inhibition of PI4KB in human PC3 cell lysates at 30 uM using desthiobiotin-tagged ATP probe AX9989 followed by trypsinization by LC/MS analysis; conditions: PC-3
[2] = molecular target: T1, Serine/threonine-protein kinase STK11 (Homo sapiens) (UniProt Q15831); test: Inhibition of LKB1 in human PC3 cell lysates at 30 uM using desthiobiotin-tagged ATP probe AX9989 followed by trypsinization by LC/MS analysis; conditions: PC-3
T1 sequence (whole entry): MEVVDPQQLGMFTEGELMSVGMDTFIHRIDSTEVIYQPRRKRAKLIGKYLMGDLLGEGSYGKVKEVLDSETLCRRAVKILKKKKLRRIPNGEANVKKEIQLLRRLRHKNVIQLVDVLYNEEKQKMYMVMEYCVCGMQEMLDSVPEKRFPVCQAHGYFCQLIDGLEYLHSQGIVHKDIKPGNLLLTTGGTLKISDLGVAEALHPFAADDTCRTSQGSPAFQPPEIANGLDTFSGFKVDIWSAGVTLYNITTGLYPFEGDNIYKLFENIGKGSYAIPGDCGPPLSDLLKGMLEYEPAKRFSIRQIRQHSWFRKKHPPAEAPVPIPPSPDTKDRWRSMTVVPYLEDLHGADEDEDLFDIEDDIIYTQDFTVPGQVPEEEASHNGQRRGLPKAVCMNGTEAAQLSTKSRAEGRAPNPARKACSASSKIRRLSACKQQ

[3] = molecular target: Cyclin-dependent kinase 10 (Homo sapiens) (UniProt Q15131); test: Inhibition of CDK10 in human PC3 cell lysates at 30 uM using desthiobiotin-tagged ATP probe AX9989 followed by trypsinization by LC/MS analysis; conditions: PC-3
[4] = molecular target: T2, Serine/threonine-protein kinase TAO2 (Homo sapiens) (UniProt Q9UL54); test: Inhibition of TAO2 in human PC3 cell lysates at 30 uM using desthiobiotin-tagged ATP probe AX9989 followed by trypsinization by LC/MS analysis; conditions: PC-3
T2 sequence (whole entry): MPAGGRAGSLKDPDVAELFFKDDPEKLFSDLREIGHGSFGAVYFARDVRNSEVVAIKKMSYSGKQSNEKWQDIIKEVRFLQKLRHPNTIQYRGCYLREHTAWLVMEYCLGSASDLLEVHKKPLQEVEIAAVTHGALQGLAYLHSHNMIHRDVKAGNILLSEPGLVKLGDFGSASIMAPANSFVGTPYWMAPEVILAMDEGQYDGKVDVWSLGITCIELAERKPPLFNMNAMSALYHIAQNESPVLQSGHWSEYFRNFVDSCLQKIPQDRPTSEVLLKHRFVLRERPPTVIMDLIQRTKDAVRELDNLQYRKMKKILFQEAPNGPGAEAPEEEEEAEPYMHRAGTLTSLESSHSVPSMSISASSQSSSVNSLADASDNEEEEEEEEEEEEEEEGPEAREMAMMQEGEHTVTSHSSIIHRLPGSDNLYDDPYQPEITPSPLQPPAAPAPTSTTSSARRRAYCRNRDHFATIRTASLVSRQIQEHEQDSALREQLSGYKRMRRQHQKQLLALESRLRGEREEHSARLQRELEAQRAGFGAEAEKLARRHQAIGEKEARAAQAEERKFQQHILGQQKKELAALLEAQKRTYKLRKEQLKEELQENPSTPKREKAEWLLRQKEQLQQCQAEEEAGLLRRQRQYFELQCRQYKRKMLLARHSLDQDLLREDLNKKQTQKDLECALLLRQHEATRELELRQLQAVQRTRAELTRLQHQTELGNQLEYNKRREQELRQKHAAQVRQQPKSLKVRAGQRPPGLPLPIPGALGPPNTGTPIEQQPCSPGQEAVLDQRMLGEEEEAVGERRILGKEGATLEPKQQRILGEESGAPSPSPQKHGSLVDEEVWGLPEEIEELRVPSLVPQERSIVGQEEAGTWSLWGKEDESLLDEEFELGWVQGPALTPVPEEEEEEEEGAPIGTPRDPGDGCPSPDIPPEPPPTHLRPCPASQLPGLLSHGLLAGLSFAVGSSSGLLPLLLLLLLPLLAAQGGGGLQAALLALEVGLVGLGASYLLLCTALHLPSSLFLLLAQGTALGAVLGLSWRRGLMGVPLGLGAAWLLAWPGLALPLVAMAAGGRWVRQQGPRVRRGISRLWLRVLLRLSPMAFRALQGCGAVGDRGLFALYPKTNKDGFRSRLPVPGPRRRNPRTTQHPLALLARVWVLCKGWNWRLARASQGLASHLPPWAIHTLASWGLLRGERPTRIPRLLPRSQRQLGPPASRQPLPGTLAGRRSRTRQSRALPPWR

[5] = molecular target: Cyclin-dependent kinase 9 (Homo sapiens) (UniProt P50750); test: Inhibition of CDK9 in human PC3 cell lysates at 30 uM using desthiobiotin-tagged ATP probe AX9989 followed by trypsinization by LC/MS analysis; conditions: PC-3
[6] = molecular target: Casein kinase II subunit alpha' (Homo sapiens) (UniProt P19784); test: Inhibition of CK2alpha2 in human PC3 cell lysates at 30 uM using desthiobiotin-tagged ATP probe AX9989 followed by trypsinization by LC/MS analysis; conditions: PC-3
[7] = molecular target: Cyclin-dependent kinase 16 (Homo sapiens) (UniProt Q00536); test: Inhibition of PCTAIRE1 in human PC3 cell lysates at 30 uM using desthiobiotin-tagged ATP probe AX9989 followed by trypsinization by LC/MS analysis; conditions: PC-3
[8] = molecular target: T3, Phosphatidylinositol 5-phosphate 4-kinase type-2 gamma (Homo sapiens) (UniProt Q8TBX8); test: Inhibition of PIP4K2C in human PC3 cell lysates at 30 uM using desthiobiotin-tagged ATP probe AX9989 followed by trypsinization by LC/MS analysis; conditions: PC-3
T3 sequence (whole entry): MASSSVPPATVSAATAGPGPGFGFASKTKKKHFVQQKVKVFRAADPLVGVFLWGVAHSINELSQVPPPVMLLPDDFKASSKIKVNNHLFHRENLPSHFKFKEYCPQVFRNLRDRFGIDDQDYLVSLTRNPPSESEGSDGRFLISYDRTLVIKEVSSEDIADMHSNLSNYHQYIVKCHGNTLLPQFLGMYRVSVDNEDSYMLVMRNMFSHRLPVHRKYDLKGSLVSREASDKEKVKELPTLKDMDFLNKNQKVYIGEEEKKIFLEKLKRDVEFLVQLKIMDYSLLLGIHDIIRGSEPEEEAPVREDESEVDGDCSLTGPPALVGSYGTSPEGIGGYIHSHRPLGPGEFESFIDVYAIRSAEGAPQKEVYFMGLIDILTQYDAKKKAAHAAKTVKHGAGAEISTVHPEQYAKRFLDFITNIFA

[9] = molecular target: Mitogen-activated protein kinase 9 (Homo sapiens, UniProt P45984); test: Inhibition of JNK2 in human Jurkat cell lysates using desthiobiotin-tagged ATP probe AX9989 followed by trypsinization by LC/MS analysis
Sequence of Mitogen-activated protein kinase 9 (P45984 whole entry): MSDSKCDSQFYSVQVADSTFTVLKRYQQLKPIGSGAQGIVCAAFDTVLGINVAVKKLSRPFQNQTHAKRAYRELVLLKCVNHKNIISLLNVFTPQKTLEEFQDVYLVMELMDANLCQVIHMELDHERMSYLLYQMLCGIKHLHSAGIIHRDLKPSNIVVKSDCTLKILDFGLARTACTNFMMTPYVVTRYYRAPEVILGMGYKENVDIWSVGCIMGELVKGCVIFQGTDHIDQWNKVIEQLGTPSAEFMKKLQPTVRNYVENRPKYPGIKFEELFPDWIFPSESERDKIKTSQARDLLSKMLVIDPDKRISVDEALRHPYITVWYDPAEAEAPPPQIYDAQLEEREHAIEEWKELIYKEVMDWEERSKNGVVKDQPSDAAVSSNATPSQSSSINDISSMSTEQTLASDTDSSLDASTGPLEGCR

Sequence of Cyclin-dependent kinase 9 (Homo sapiens) (P50750 whole entry): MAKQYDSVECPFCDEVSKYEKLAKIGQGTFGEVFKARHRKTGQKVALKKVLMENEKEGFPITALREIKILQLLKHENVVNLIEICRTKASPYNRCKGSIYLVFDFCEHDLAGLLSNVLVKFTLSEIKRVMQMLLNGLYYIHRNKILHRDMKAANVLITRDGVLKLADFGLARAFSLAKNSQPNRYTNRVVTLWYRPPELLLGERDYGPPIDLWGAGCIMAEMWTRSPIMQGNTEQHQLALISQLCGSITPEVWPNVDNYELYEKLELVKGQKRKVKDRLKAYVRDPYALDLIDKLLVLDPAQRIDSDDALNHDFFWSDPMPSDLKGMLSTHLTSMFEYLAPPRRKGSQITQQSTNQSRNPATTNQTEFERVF
Sequence of Cyclin-dependent kinase 10 (Homo sapiens) (Q15131 whole entry): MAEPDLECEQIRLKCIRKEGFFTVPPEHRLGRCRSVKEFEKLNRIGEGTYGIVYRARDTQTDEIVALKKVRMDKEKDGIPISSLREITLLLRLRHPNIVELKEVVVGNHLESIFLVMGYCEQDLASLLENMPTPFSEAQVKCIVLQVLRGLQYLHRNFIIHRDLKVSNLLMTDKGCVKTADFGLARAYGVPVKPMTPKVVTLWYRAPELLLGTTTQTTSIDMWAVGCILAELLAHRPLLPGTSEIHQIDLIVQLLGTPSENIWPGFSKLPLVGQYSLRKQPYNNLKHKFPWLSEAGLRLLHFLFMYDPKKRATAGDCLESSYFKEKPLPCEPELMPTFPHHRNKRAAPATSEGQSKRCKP
Sequence of Cyclin-dependent kinase 16 (Homo sapiens) (Q00536 whole entry): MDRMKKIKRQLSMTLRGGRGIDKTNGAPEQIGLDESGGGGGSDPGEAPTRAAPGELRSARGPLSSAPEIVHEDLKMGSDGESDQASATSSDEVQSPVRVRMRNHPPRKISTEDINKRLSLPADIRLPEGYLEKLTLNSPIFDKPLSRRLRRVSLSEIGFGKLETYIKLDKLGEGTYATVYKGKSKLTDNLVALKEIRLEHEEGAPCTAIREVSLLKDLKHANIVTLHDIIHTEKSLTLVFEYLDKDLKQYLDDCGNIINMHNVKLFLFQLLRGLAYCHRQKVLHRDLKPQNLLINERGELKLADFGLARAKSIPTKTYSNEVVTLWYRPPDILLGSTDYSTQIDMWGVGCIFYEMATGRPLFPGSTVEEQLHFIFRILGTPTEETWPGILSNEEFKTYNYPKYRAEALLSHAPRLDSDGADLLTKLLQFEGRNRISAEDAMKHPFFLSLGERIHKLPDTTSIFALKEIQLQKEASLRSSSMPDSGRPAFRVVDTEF
Sequence of Casein kinase II subunit alpha' (Homo sapiens) (P19784 whole entry, looked up): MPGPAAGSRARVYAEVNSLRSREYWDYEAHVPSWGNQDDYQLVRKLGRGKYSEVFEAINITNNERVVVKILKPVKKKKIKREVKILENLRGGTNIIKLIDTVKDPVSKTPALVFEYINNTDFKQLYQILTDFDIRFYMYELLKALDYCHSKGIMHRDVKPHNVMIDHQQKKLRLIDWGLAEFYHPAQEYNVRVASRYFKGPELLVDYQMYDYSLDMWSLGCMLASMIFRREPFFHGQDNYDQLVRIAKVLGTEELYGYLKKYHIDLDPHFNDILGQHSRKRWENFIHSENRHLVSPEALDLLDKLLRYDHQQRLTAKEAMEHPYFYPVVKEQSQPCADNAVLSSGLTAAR
Sequence of Phosphatidylinositol 4-kinase beta (Homo sapiens) (Q9UBF8 2-816 limits assumed): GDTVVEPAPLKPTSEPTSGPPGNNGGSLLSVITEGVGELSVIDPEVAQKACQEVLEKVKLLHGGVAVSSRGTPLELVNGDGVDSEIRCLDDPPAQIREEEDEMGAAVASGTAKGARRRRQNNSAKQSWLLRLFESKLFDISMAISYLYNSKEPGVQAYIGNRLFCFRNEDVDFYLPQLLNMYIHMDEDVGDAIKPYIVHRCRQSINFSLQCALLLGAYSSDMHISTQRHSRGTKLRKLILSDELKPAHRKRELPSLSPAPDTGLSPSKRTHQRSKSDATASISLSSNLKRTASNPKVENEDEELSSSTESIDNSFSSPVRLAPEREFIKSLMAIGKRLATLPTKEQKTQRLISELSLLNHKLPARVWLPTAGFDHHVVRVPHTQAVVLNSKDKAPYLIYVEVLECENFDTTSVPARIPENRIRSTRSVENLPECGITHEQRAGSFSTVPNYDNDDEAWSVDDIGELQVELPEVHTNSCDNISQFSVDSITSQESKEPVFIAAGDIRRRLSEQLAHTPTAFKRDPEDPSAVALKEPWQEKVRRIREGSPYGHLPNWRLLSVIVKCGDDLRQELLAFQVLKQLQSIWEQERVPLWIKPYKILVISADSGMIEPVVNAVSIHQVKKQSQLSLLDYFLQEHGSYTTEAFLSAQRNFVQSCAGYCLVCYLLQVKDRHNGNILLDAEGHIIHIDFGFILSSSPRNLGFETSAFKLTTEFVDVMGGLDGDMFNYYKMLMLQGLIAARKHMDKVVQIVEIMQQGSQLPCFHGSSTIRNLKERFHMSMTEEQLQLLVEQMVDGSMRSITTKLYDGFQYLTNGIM

Row | inhibition [1] | inhibition [2] | inhibition [3] | inhibition [4] | inhibition [5] | inhibition [6] | inhibition [7] | inhibition [8] | IC50 [9] | Compound
1 | 90.8% | 45.6% | 79.8% | 37% | 90.7% | 49.6% | 38.9% | 50.9% |  | O[C@H]1CC[C@H](Nc2nc3ccccc3n3ccnc23)CC1
2 |  |  |  |  |  |  |  |  | 120 nM | O=C(NC1(Cc2ccc(F)cc2)CC1)c1ccc2nc(N[C@H]3CC[C@H](O)CC3)c3nccn3c2c1
3 |  |  |  |  |  |  |  |  | 100 nM | CC[C@@H](NC(=O)c1ccc2nc(N[C@H]3CC[C@H](O)CC3)c3nccn3c2c1)c1ccccc1
4 |  |  |  |  |  |  |  |  | 135 nM | O=C(N[C@H](CO)c1ccccc1)c1ccc2nc(N[C@H]3CC[C@H](O)CC3)c3nccn3c2c1
5 | 59.9% | < 35% | 35.7% | < 35% | < 35% | < 35% | < 35% | 52.6% |  | c1ccc(CCNc2nc3ccccc3n3ccnc23)cc1
6 | 55.9% | < 35% | 37.2% | < 35% | 50.7% | < 35% | < 35% | < 35% |  | c1ccc2c(c1)nc(NC1CCCCC1)c1nccn12
7 | 66.5% | < 35% | < 35% | < 35% | < 35% | < 35% | < 35% | < 35% |  | c1ccc(CNc2nc3ccccc3n3ccnc23)cc1
